“And” between values parts separate entries of the source, which are not always exact repeats. Equal values may be shown once. The source made the active and inactive calls.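 The calls were made as follows: active = compounds giving half or more protection of infected cells from virus-caused growth loss, again on retest; inactive = the rest.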 Where a SMILES comes first, the peptide text is derived from it. [ ]: non-standard residue; d: D form. The star is where a group is joined. ξ: configuration not given here. Cbz = O=C(OCc1ccccc1)*; Boc = CC(C)(C)OC(=O)*; OBn = c1ccc(CO*)cc1; ξP = O=C(O)C1CCCN1
Test system: CEM cells HIV-1 protection, formazan growth assay
Assay: NCI AIDS Antiviral Assay
Settings: for IC50: measured here: growth of uninfected CEM cells
Method in brief: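 Protection of CEM cells against HIV-1 was scored from cell growth (soluble formazan) across five concentrations, with parallel uninfected cells. Lack of protection may reflect toxicity.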

| SMILES | EC50 [µM] | IC50 | outcome |
| --- | --- | --- | --- |
| C=CC[C@H]1[C@@H](O[Si](C)(C)C(C)(C)C)[C@H](n2ccc(=O)[nH]c2=O)O[C@@H]1CO[Si](C)(C)C(C)(C)C | > 200 | 10 µM |  |
| Nc1ccccc1SSc1ccccc1N | > 200 | 25.1 µM and 5.37 µM | inactive |
| NC(CS)C(=O)NCCNCCNc1ccc(NCCNCCNC(=O)C(N)CS)c2c1C(=O)c1c(O)ccc(O)c1C2=O (stereo unspecified) | > 200 | 13.5 µM |  |
| N#C/C(=C1\SC(=O)CN1c1ccccc1)c1nc2ccccc2o1 | > 200 | > 200 µM |  |
| Cc1cccc(NC(=O)O/N=C(\Cl)C(C)C)c1 | > 20 | 2.82 µM |  |
| CCC(CO)NC(=O)Nc1ccc(S(=O)(=O)c2ccc([N+](=O)[O-])cc2)cc1 (stereo unspecified) | > 200 | 12 µM |  |
| CC1C(=O)NC(=O)CC(=O)NC1=O | > 1350 | > 1350 µM |  |
| COC1/C=C/OC2(C)Oc3c(C)c(O)c4c(O)c(cc(OCC(=O)N(Cc5ccccc5)Cc5ccccc5)c4c3C2=O)NC(=O)/C(C)=C/C=C/C(C)C(O)C(C)C(O)C(C)C(OC(C)=O)C1C (stereo unspecified) |  |  | inactive |
| O=C1C=CC(=O)c2c(-c3ccccc3[N+](=O)[O-])cc(Cl)nc21 |  |  | inactive |
| O=C(NCCCCNCCCNC(=O)OCc1ccccc1)OCc1ccccc1 | > 200 | 33.1 µM |  |
| CC1NOC(=O)C1N=Nc1ccc(Cl)cc1Cl (stereo unspecified) | > 36.3 | > 36.3 µM |  |
| Cc1ccc(C(O)/C(=N/N)c2nc3ccc([N+](=O)[O-])cc3[nH]c2=O)cc1 (stereo unspecified) | > 537 | 457 µM |  |
| COCCOCCOCCOc1cccc2c1C(=O)c1cccc(OCCOCCOCCOC)c1C2=O |  |  | inactive |
| CCc1cccc(C)c1NS(=O)(=O)c1ccccc1 |  |  | inactive |
| COC(=O)C12OC(C)(C(CC(=O)OC(C)(C)C)C1=O)C1C(=O)N(c3ccccc3)C(=O)C12 (stereo unspecified) | > 200 | > 200 µM |  |
| C#CCOCn1cnc2c(=S)nc[nH]c21 | > 9.12 | > 9.12 µM |  |
| NNC(=O)c1c(SCc2ccccc2)nc2c3ccccc3ccn12 | > 200 | 15.8 µM |  |
| Cc1cn(Cc2ccccc2CCO)c(=O)[nH]c1=O | 191 | 479 µM |  |
| CCCCn1cc(C(=O)O)c(=O)c2c3sccc3ccc21 | > 200 | 22.4 µM |  |
| CCCCCCc1cc2cc(-c3csc(CC#N)n3)c(=O)oc2cc1O | > 200 | > 200 µM |  |
| CCCCCCCCNC(=O)/C(=C\c1ccc2c(c1)OCO2)NC(=O)c1ccccc1 | > 58.9 | 45.7 µM |  |
| O=C(CCc1ccccc1CO)NCCc1ccccc1 | > 200 | > 200 µM |  |

| SMILES | EC50 [µM] | IC50 | outcome |
| --- | --- | --- | --- |
| NC(C(=O)O)C1=CCCC1 (stereo unspecified) | > 200 | > 200 µM |  |
| C/C=C1\CC(C(=O)OCC)CCCCCCC1=O (stereo unspecified) | > 200 | 17.4 µM |  |
| O=C1NC(=O)/C(=C/c2ccc(S(=O)(=O)N/N=C\C(O)C(O)C(O)C(O)CO)cc2)N1 (stereo unspecified) | > 200 | 126 µM and > 200 µM |  |
| COC(=O)c1c(-c2ccccc2)c(-c2ccccc2)[nH]c(=O)c1C#N | > 200 | > 200 µM |  |
| CN(c1ccc(Cl)cc1)S(=O)(=O)c1ccccc1[N+](=O)[O-] | > 200 | 24.5 µM |  |
| C=CC(C)(C)c1c(OC(C)=O)cc2oc3c(OC(C)=O)c(OC(C)=O)cc(CC=C(C)C)c3c(=O)c2c1O | > 200 | 120 µM |  |
| CC1(C)CC(=O)CC(C)(C)ON1 |  |  | inactive |
| COc1ccc(NC(=O)C2C(=O)N(c3ccc(OC)cc3)C(=O)/C2=N\N)cc1 (stereo unspecified) | > 1.45 | > 1.45 µM |  |
| CNC(=O)N(C)C(=O)c1ccccc1C(=O)N(C)C(=O)NC | > 200 | > 200 µM |  |
| CCN(CC)c1nc(NC2CCCCC2)c2nc(N(CC)CC)nc(NC3CCCCC3)c2n1 | > 11.2 | 0.537 µM |  |
| Cc1ccc2c(=O)c3c(O)c4c(cc3n(C)c2c1)OC(C)(C)C=C4 | > 200 | > 200 µM |  |
| O=C(c1ccc(Cl)cc1)c1ccc(OCCSCCCCCCCCCCSCCOc2ccc(C(=O)c3ccc(Cl)cc3)cc2)cc1 | > 13.8 | > 13.8 µM |  |
| O=C(CC(=O)N1N=C(c2ccccc2)C(N=Nc2ccccc2Cl)C1=O)Nc1ccccc1Cl (stereo unspecified) | > 52.5 | 29.5 µM |  |
| OCc1ccc2c(c1)CC1(Cc3ccccc3C1)C2 | > 200 | 20 µM |  |
| Cc1cc(NC(=S)NNC(=O)Cn2nnc(-c3cccc(Cl)c3Cl)n2)ccc1Br | > 200 | 141 µM |  |
| C/C(=C\CCC1=CC(=O)OC1)CCC1C2C(=O)CC(C)[C@@]3(C)CC[C@]1(C)[C@@]23C (stereo partly specified) | > 200 | 34.7 µM |  |
| C=C1C(OC(C)=O)[C@@]23CC[C@@H]4C(C)(C(=O)OC)CCCC4(C)[C@@H]2CC[C@@H]1C3 (stereo partly specified) | > 200 | 51.3 µM |  |
| Cc1nc2ccc(S(=O)(=O)Nc3ccc(Cl)cc3)cc2c(=O)n1NC(=O)CNc1ccc(Cl)cc1 | > 200 | > 200 µM |  |
| COc1cc2ccnc3c2c(c1OC)-c1coc(SC)c1-3 |  |  | inactive |
| O=C1NNC2CCCCC2O1 (stereo unspecified) | > 1150 | > 1150 µM |  |
| Cn1c2ccccc2c(=O)c2c(O)cc3c(c21)N=CC(C)(C)O3 |  |  | inactive |
| C=CCNC(=O)C(O)C(O)C(=O)NCC=C (stereo unspecified) | > 1100 | > 1100 µM |  |

| SMILES | EC50 [µM] | IC50 | outcome |
| --- | --- | --- | --- |
| O=C(c1ccccc1)[C@H]1Nc2cnccc2C2c3ccccc3CC21 (stereo partly specified) | > 30.9 | > 30.9 µM |  |
| CC(=O)Nc1c(C(=O)O)[nH]c(=O)[nH]c1=O | > 200 | > 200 µM |  |
| COC(=O)C1=NC(=S)NC(c2ccccc2)C1c1nc2ccccc2s1 (stereo unspecified) |  |  | inactive |
| O=C(Nc1ccccc1)c1cc2ccccc2oc1=O | > 100 | > 100 µM |  |
| CC(=O)Nc1ccc(S(=O)(=O)N/N=C(\C)CN2C(=O)c3ccccc3C2=O)cc1 | > 229 | > 229 µM |  |
| NNc1nnc(CCCCCCCCc2nnc(NN)n2N)n1N | > 200 | 37.2 µM |  |
| CC1(CO)OC(n2cnc3c(N)ncnc32)C(O)C1O (stereo unspecified) | > 891 | > 891 µM |  |
| CCCC(=O)NC(Nc1ccc(S(=O)(=O)Nc2cc(C)on2)cc1)(C(=O)OCC)C(F)(F)F (stereo unspecified) |  |  | inactive |
| COc1ccc(-n2sc3ncc(C)cc3c2=O)cc1 | 0.49 | 10.5 µM |  |
| CC(C)(C)OC(=O)N[C@@H](Cc1ccccc1)C(=O)N1CCCC1C(=O)OCc1ccccc1 (stereo partly drawn) (Boc-Phe-[ξP]-OBn) | > 41.7 | > 41.7 µM |  |
| S=c1[nH]nc(CCCCCCCCc2n[nH]c(=S)o2)o1 |  |  | inactive |
| COc1ccc(-c2c(N)cnc(C(=O)O)c2C)c(O)c1OC |  |  | inactive |
| O=C(/C=C/c1ccccc1)c1cc(C(=O)/C=C/c2ccccc2)c(O)cc1O | > 200 | 69.2 µM |  |
| CC/C(CC(=O)CCC(=O)Nc1c(C)cccc1C)=N\NC(=O)NN | > 145 | > 145 µM |  |
| CCC(Sc1cc(Cl)c(C)cc1S(=O)(=O)Nc1nc(N)nc(N(C)C)n1)C(=O)O (stereo unspecified) |  |  | inactive |
| Cc1c(C(=O)C/C(=N/NC(=O)C[N+](C)(C)C)C(=O)Nc2ccc(Cl)cc2)[n+](=O)c2ccccc2n1O | > 9.12 | > 9.12 µM |  |
| CC(C)(c1ccc(C=O)o1)c1ccc(C(C)(C)c2ccc(C=O)o2)o1 |  |  | inactive |
| O=C(O)c1ccccc1Sc1ccccc1[N+](=O)[O-] |  |  | inactive |
| CC(=O)[O-].COc1cccc(/C=N\[N-]C(=O)c2ccncc2)c1.[Co+2].[OH3+].[OH3+].c1ccncc1 | > 100 | 57.5 µM |  |
| Cc1cccnc1CC(O)c1ccccc1 (stereo unspecified) | > 200 | 107 µM |  |
| CO/C=C/CCCO | > 2140 | > 2140 µM |  |
| O=c1cc[nH]cc1-c1c[nH]ccc1=O |  |  | inactive |

| SMILES | EC50 [µM] | IC50 | outcome |
| --- | --- | --- | --- |
| CCc1cccc(CC)c1N=C(NC(=O)c1ccc(Br)cc1)SC | > 200 | > 200 µM |  |
| Cn1c(=Nc2ccccc2[N+](=O)[O-])sc2ccccc21 | > 200 | > 100 µM |  |
| O=C(CO[N+](=O)[O-])OC/C=C/c1ccccc1 |  |  | inactive |
| O=S(=O)(SCCO)c1ccccc1 | > 813 | 57.5 µM |  |
| CC12ON=C(c3ccccc3)N1C=CN1C(c3ccccc3)=NOC12 (stereo unspecified) | > 200 | > 200 µM |  |
| CC(NC(=O)Cc1ccccc1)NC(=O)C(C)C(=O)NCc1ccccc1 (stereo unspecified) |  |  | inactive |
| CCOC(=O)C1=C(C)NC(=O)NC1c1ccc(OC)cc1OC (stereo unspecified) | > 30.9 | > 30.9 µM |  |
| CCOC(=O)CC(NC(=O)C(CC(=O)OC)NC(=O)C(CC(=O)OC)NC(=O)C(CC(=O)OC)NC(=O)C(CC(=O)OC)NC(=O)C(CC(=O)OC)NC(=O)C(CC(=O)OC)NC(=O)C(CC(=O)OC)NC(=O)OCc1ccccc1)C(=O)OCC (stereo unspecified) (Cbz-D(OMe)D(OMe)D(OMe)D(OMe)D(OMe)D(OMe)D(OMe)D(OEt)-OEt; configuration not given here) | > 100 | > 100 µM |  |
| Fc1ccc2c3c([nH]c2c1)CCNC3 | > 200 | > 200 µM |  |
| COc1ccc(N2C(=O)CC(c3c[nH]c4ncccc34)C2=O)cc1 (stereo unspecified) | > 200 | 42.7 µM |  |
| CCN(CC)CCOC(=O)c1c(C)oc2cc3c(C(=O)OCCN(CC)CC)c(C)oc3cc12 | > 200 | 6.03 µM |  |
| CCOP(=O)(OCC)C(C)(C)N(C)/C(F)=N/C(F)(F)F | > 200 | > 200 µM |  |
| S=c1[nH]nc(-c2ccccc2)n1/N=C\c1ccc(-c2ccc(Cl)cc2)o1 | > 5.25 | > 5.25 µM |  |
| N#C/C(=C\c1cc(Cl)ccc1O)C1CCC([N+](=O)[O-])CC1 (stereo unspecified) | > 200 | 30.2 µM |  |
| Cc1ccnc2[nH]c3ccccc3c(=O)c12 | > 200 | 14.5 µM |  |
| Cc1ccc(S(=O)(=O)c2ccc([N+](=O)[O-])cc2)cc1 |  |  | inactive |
| COc1nc(C(O)C2OC(C)(C)OCC2O)[nH]c1C#N (stereo unspecified) |  |  | inactive |
| COc1cccc(C2c3cc4c(cc3OC(N3CCOCC3)C2C)OCO4)c1O (stereo unspecified) | > 200 | 3.09 µM |  |
| CCC(C)(C)C1CCC2c3c([nH]c4ccccc34)C3C(=O)N(c4ccc(OC)cc4)C(=O)C3C2C1 (stereo unspecified) | > 200 | 7.76 µM |  |
| COCC1C(=O)c2cc3c(cc2C12C=CC1(C=C2)OCCO1)OCO3 (stereo unspecified) | > 275 | 11 µM |  |
| Cc1cc(S(=O)(=O)NC2=NCC(C)(C)CN2)c(S)cc1Cl | > 200 | 87.1 µM |  |
